In patent US20250250265A1, “BENZOTHIAZOLE-PHENYLSULFONYL-PIPERIDINE ANALOGS AS ACTIVATORS OF NACYLPHOSPHATIDYLETHANOLAMINE HYDROLYZING PHOSPHOLIPASE D” (priority 2022, published 2025):
Entries after “also recorded” stand apart in the source; their conditions may differ.

What was measured:
[1] = tested on: bone marrow-derived macrophages (BMDM); assay: Efferocytosis assay with bone marrow-derived macrophages and apoptotic Jurkat cells; assay type: cell-based, mouse; conditions: 10 μM; for effect on efferocytosis by wild-type BMDM: 6 h before assay
Description: Male C57BL6/j wild-type or Napepld^−/− mice were euthanized with isoflurane and hind legs were removed. Marrow was flushed from femurs and tibias using DMEM containing 4.5 g/L glucose and a 26-gauge needle. Cell suspensions were passed over a 40-μm filter, centrifuged at 500×g, and resuspended in 50 ml of DMEM containing 4.5 g/L glucose, 20% L-cell conditioned media, 10% heat-inactivated FBS, and 1% penicillin/streptomycin. 10 ml of cell suspension was plated into each of five 100-mm dishes and incubated for four days at 37° C. and 5% CO2. On day four, non-adherent cells and debris were aspirated from the plates and replaced with fresh media. After 7 days of differentiation, cells were harvested for use in experiments.
Assays were performed according to previously described protocols. See e.g., Doran et al. J. Clin. Invest. 127(11): 4075-4089 (2017); Proto et al., Immunity 49(4): 666-677 (2018). Bone marrow-derived macrophages were seeded at 0.25×10^6 cells/well in a non-tissue culture-treated 24-well plate and allowed to adhere overnight. Macrophages were treated with various compounds at a final concentration of 10 μM or DMSO as a vehicle for 6 hours prior to each experiment. Jurkat cells were exposed to UV light (254 nm) for 5 minutes to induce apoptosis and then incubated in a 37° C. incubator with 5% CO2 for 2 hours. Surveillance staining of these cells routinely yielded approximately 80-90% apoptosis (Annexin V+) using this method. Apoptotic Jurkat cells were labeled with either CellVue Claret (Millipore Sigma) or Cell Trace Violet (Invitrogen) per the manufacturer's instructions. After staining, cells were resuspended in macrophage medium at a density of […] and 500 μL of this suspension was added to the drug-containing media on the macrophages to achieve a cell ratio of 3:1 Jurkats: macrophages. After incubating for 45 minutes at 37° C. and 5% CO2, the medium was aspirated, and the macrophages were gently washed twice with PBS to remove unbound apoptotic cells. Macrophages were then removed from the plate using Cell Stripper (Sigma), washed, resuspended in staining buffer consisting of 2% FBS in PBS with 2 mM EDTA, and blocked with anti-mouse CD16/32 antibodies for 15 minutes on ice. After blocking, cells were pelleted and resuspended with F4/80. Cells were incubated for 45 minutes on ice in the dark, then washed and resuspended in staining buffer for analysis. Cells were analyzed using an Attune NxT cytometer (Thermo Fisher) and data were analyzed using FlowJo software to quantify the proportion of F4/80^+ macrophages that co-stained for apoptotic cells (% efferocytosis).

[2] = target: T1, recombinant human NAPE-PLD (Homo sapiens, UniProt Q6IQ20); assay: Concentration response with recombinant human NAPE-PLD, PED-A1 as substrate; assay type: biochemical; conditions: for effect on activity of recombinant human NAPE-PLD: graded concentrations (FIG. 18A)
T1 construct: The expression plasmid including the full-length human NAPEPLD gene with a C-terminal hexahistidine tag; hexahistidine (His6) (C)
T1 sequence (Q6IQ20 whole entry): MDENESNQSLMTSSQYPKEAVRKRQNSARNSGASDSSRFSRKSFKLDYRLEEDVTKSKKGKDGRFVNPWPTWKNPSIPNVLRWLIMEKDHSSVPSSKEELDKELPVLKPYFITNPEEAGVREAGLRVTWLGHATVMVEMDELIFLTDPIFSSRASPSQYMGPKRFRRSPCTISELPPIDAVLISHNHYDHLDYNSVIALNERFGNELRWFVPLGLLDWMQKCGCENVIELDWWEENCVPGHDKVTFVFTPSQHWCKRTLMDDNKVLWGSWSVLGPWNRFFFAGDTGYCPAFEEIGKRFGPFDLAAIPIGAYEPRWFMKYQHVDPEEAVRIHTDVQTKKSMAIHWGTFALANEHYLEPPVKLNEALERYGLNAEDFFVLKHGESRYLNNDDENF
Excerpt: FIG. 18A-B show VU534 and VU533 activate human NAPE-PLD. […] Mean±SEM, n=3. Non-linear regression with variable slope (four parameter) was used to calculate EC50 and Emax.
Initial stocks of potential NAPE-PLD modulator compounds were purchased from Life Chemicals and provided by the Vanderbilt HTS screening facility. Additional compounds were synthesized by the Vanderbilt Chemical Synthesis core. LEI-401, [^2H4]PEA and [^2H4]OEA were purchased from Cayman Chemicals. N-palmitoyl-PE, 1,2-dioleoyl-PE and 1,2-dihexanoyl-PE were purchased from Avanti Polar Lipids. PED-A1 was purchased from Invitrogen. Flame-NAPE was synthesized as previously described. See Zarrow et al., J. Lipid Res. 63(1): 100156 (2022). [^2H4]N-palmitoyl-PE was synthesized using [^2H4] palmitic acid (Cambridge Isotope Laboratories) and 1,2-dioleoyl-PE and N-oleoyl-PE was synthesized using 1,2-dihexanoyl-PE and oleoyl chloride (Millipore Sigma). Recombinant mouse NAPE-PLD with a C-terminal hexahistidine tag was expressed in E. coli and purified using cobalt affinity beads as previously described. See Aggarwal et al., J. Biol. Chem. 295(21): 7289-7300 (2020). The expression plasmid including the full-length human NAPEPLD gene with a C-terminal hexahistidine tag inserted in a pET plasmid was purchased from VectorBuilder, and the protein expressed and purified in an identical manner to recombinant mouse NAPE-PLD. The sEH inhibitors TPPU (N-[1-(1-Oxopropyl)-4-piperidinyl]-N′-[4-(trifluoromethoxy)phenyl]urea) and AUDA (12-[[(tricyclo[3.3.1.13,7]dec-1-ylamino)carbonyl]amino]-dodecanoic acid) were purchased from Cayman Chemical and Sigma Chemicals, respectively.
In vitro fluorescence NAPE-PLD activity assays using recombinant NAPE-PLD and either PED-A1 or flame-NAPE as fluorogenic substrate were performed as previously described except with small modifications as noted below. See Aggarwal et al., J. Biol. Chem. 295(21): 7289-7300 (2020); Zarrow et al., J. Lipid Res. 63(1): 100156 (2022).
Concentration response curve (CRC) experiments used the same assay conditions as the HTS assay, except that graded concentrations of each test compound were used, with total amount of vehicle (DMSO) kept constant. CRC experiments with purified recombinant mouse NAPE-PLD were performed on two separate days, with values from each day normalized to vehicle only controls on same plate, and then all normalized values from both days averaged together. CRC experiments with human NAPE-PLD represent value from only a single day, due to limited amounts of this recombinant enzyme.

SMILES | effect on efferocytosis by Napepld−/− (KO) BMDM ([1]; 6 h, KO BMDM (FIG. 21C)) | effect on efferocytosis by WT BMDM in WT versus KO experiment ([1]; 6 h, WT BMDM (FIG. 21C)) | effect on efferocytosis by wild-type BMDM [1] | Emax, recombinant human NAPE-PLD ([2]; FIG. 18A, PED-A1) [fold] | effect on activity of recombinant human NAPE-PLD [2] | EC50, recombinant human NAPE-PLD ([2]; FIG. 18A, PED-A1)
Cc1cc(C)c2sc(NC(=O)C3CCN(S(=O)(=O)c4ccc(F)cc4)CC3)nc2c1 [VU534, N-(5,7-Dimethylbenzo[d]thiazol-2-yl)-1-((4-fluorophenyl)sulfonyl)piperidine-4-carboxamide] | had no effect | significantly increased efferocytosis | increases efferocytosis capacity; also recorded: significantly enhanced efferocytosis | 1.8 | concentration-dependent increases | 
O=C(Nc1nc2ccccc2s1)C1CCN(S(=O)(=O)c2ccc(F)c(Cl)c2)CC1 [VU233] |  |  | modestly reduced efferocytosis |  | no significant effect | not calculable
Cc1ccc(C)c2sc(NC(=O)C3CCN(S(=O)(=O)c4ccc(F)cc4)CC3)nc12 [VU533] |  |  | significantly enhanced efferocytosis | 1.9 | concentration-dependent increases | 
